Paper PMC8476055, “Synthesis and Biological Activity of Triterpene–Coumarin Conjugates” (Journal of Natural Products, 2021)
Where “and” joins values, the source holds several entries; their conditions need not be identical. Equal values may be shown once.

Assays:
[1] = system: Hep G2 cells; experiment: Cell-cycle distribution by PI flow cytometry, Hep G2; assay type: cell-based, human; conditions: Hep G2, 72 h at IC50 concentration
Protocol: Based on the cytotoxicity shown by derivatives 1, 4, 7, and 10, a study was made concerning their effects on the distribution of the cell cycle in order to determine possible cytostatic effects caused by the cytotoxic response. The percentages of cells in the different phases of the cycle were analyzed at 72 h, by the incorporation of propidium iodide. […] The values of cell percentage were expressed as means ± SEM of at least two independent experiments performed in triplicate. Flow cytometry was also used to measure DNA ploidy and alterations in cell-cycle profiles. The DNA content is proportional to the fluorescence of propidium iodide, enabling the percentage of cells to be determined in each phase of the cycle and the cell subpopulations with different DNA contents to be visualized.
The method used to quantify the amount of DNA in the different phases of the cell cycle (G0/G1, S, and G2/M) was performed by flow cytometry, using a fluorescence-activated cell sorter (FACS) at 488 nm in an Epics XL flow cytometer (Coulter Corporation, Hialeah, FL, USA). For this assay, 5 × 10^4 B16–F10, 6 × 10^4 HT29 cells, and 15 × 10^4 Hep G2 cells were placed in 24-well plates with 1.5 mL of medium and incubated for 24 h. After this time, the cells were treated with the different selected compounds for 72 h at their corresponding IC50 concentrations. After treatment, the cells were washed twice with PBS, trypsinized, and resuspended in 1X TBS (10 mM Tris and 150 mM NaCl); thereafter, Vindelov buffer (100 mM Tris, 100 mM NaCl, 10 mg/mL Rnase, and 1 mg/mL PI, at pH 8) was added. Cells were stored on ice and, just before measurement, were stained with 10 μL of 1 mg/mL PI solution. Approximately, 10 × 10^3 cells were analyzed in each experiment. The experiments were performed three times with two replicates per assay.

[2] = system: B16–F10 cells; experiment: Annexin V-FITC/PI flow cytometry (apoptosis), B16–F10; assay type: cell-based, murine; conditions: B16-F10, 72 h at IC50 concentration, mean ± S.E.M.
Protocol: In consideration of the cytotoxic results of these triterpene conjugates with the three cell lines assayed, three MA–diamine–coumarin conjugates (1, 4, and 7) and the MA–coumarin conjugate 10 were selected for the following cytometry studies on the three cancer cell lines. Thus, the apoptotic determination assays were performed through double staining with Annexin V (An-V), conjugated fluorescein isothiocyanate (FITC), and propidium iodide (PI). […] The values of percentage of total apoptosis were expressed as means ± SEM of at least two duplicate experiments (Figure 1).
Apoptosis was assessed by flow cytometry using a FACScan (fluorescence-activated cell sorter) flow cytometer (Coulter Corporation, Hialeah, FL, USA). For these assays, 5 × 10^4 B16–F10, 6 × 10^4 HT29 cells, and 15 × 10^4 Hep G2 cells were placed in 24-well plates with 1.5 mL of medium and incubated for 24 h. Subsequently, the cells were treated with the selected compounds in triplicate for 72 h at their corresponding IC50 concentrations. The cells were collected and resuspended in a binding buffer (10 mM HEPES/NaOH, pH 7.4, 140 mM NaCl, 2.5 mM CaCl2). Annexin V-FITC conjugate (1 mg/mL) was then added and incubated for 15 min at room temperature in darkness. Just before the analysis by flow cytometry, cells were stained with 20 μL of 1 mg/mL PI solution. In each experiment, approximately 10 × 10^3 cells were analyzed, and the experiment was duplicated twice.

[3] = system: Hep G2 cells; experiment: Mitochondrial-membrane potential (Rh123) flow cytometry, Hep G2; assay type: cell-based, human; conditions: Hep G2, 72 h at IC50 concentration
Protocol: The study of the loss of the mitochondrial-membrane potential (MMP) of tumor cells, when treated with drugs, can provide information on the activation mechanism of apoptosis. This activation can occur extrinsically when MMP is not altered, and intrinsically when a loss of this potential is caused by mitochondrial disruption. […] The values of percentage of cell population were expressed as means ± SEM of at least two experiments in duplicate. Changes in MMP were analyzed by monitoring cell fluorescence after staining with rhodamine 123 (Rh123).
The electrochemical gradient across the mitochondrial membrane was examined by analytical flow cytometry, using dihydrorhodamine (DHR), which in contact with living cells, oxidized to form highly fluorescent rhodamine 123 (Rh123). The fluorescence emitted can be monitored by fluorescence spectroscopy using excitation and emission wavelengths of 500 and 536 nm, respectively. […] Following treatment, the culture medium was renewed with fresh medium by adding 0.5 mL of DHR, for a final concentration of […]. Cells were incubated for 1 h at 37 °C in an atmosphere of 5% CO2 and 95% humidity and subsequently washed and resuspended in PBS. The fluorescence intensity was measured using a FACScan flow cytometer (fluorescence-activated cell sorter). The experiments were performed three times with two replicates per assay.

SMILES	percentage of cells in the G0/G1 phase [1]	melting point [°C]	Early Apoptosis [2] [%]	Late Apoptosis [2] [%]	Necrosis [2] [%]	Total Apoptosis [2]	Viable Cells [2] [%]	Rh123 staining (mitochondrial-membrane potential) [3]
CC1(C)CC[C@]2(C(=O)NCCCNC(=O)c3cc4ccccc4oc3=O)CC[C@]3(C)C(=CC[C@@H]4[C@@]5(C)C[C@@H](O)[C@H](O)C(C)(C)[C@@H]5CC[C@]43C)[C@@H]2C1 [Compound 1, 2α,3β-Dihydroxy-N-(3′-(2″-oxo-2″H-chromene-3″-carboxamido)propyl)olean-12-en-28-amide]	greater than 70%	69 to 71	48.5 ± 2.8	19.4 ± 4.2	1.7 ± 0.4	67.9 ± 1.5%	30.5 ± 1.9	negative Rh123 staining
CC1(C)CC[C@]2(C(=O)NCCCNC(=O)/C=C/c3ccc(O)cc3)CC[C@]3(C)C(=CC[C@@H]4[C@@]5(C)C[C@@H](O)[C@H](O)C(C)(C)[C@@H]5CC[C@]43C)[C@@H]2C1 [Compound 7, 2α,3β-Dihydroxy-N-(3′-((E)-3″-(4‴-hydroxyphenyl)acrylamido)propyl)olean-12-en-28-amide]	greater than 70%	123 to 125	39.0 ± 4.1	18.6 ± 0.1	3.1 ± 0.6	57.6 ± 3.2%	39.3 ± 3.5	–
CC1(C)CC[C@]2(C(=O)NCCCNC(=O)Cc3cc(=O)oc4cc(O)ccc34)CC[C@]3(C)C(=CC[C@@H]4[C@@]5(C)C[C@@H](O)[C@H](O)C(C)(C)[C@@H]5CC[C@]43C)[C@@H]2C1 [Compound 4, 2α,3β-Dihydroxy-N-(3′-(2″-(7‴-hydroxy-2‴-oxo-2‴H-chromen-4‴-yl)acetamido)propyl)olean-12-en-28-amide]	greater than 70%	143 to 145	74.9 ± 2.6	10.5 ± 1.4	0.7 ± 0.0	85.4 ± 3.0% and 85%	14.0 ± 3.9	negative Rh123 staining
CC1(C)CC[C@]2(C(=O)O)CC[C@]3(C)C(=CC[C@@H]4[C@@]5(C)C[C@@H](OC(=O)c6cc7ccccc7oc6=O)[C@H](OC(=O)c6cc7ccccc7oc6=O)C(C)(C)[C@@H]5CC[C@]43C)[C@@H]2C1 [Compound 10]	greater than 70%	200 to 202	18.1 ± 3.0	22.9 ± 3.8	5.7 ± 0.8	41.0 ± 1.7%	53.4 ± 2.9	negative Rh123 staining
